For data set [1] the following is noted: cited from earlier work.
For data set [2], the system named is Daphnia magna. In words: Daphnia magna acute 48 h immobilization assay (Daphtoxkit).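 As to Average effect (N immobile, 5 daphnids per replicate): test concentrations in mg per L.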 Type of data set: in vivo. The settings on record: for Average effect (N immobile, 5 daphnids per replicate): 48 h. Here is the method: Six concentration levels (5 concentrations plus control, four replicate beakers for each concentrations, five individual for each beaker) were tested. […] Each experiment was repeated in triplicate.

The nature of data set [3]: River water simulating microcosms (degradation of FL).
Data set [4] can be described thus: Activated sludge simulating microcosms (degradation of FL, formation of NFL). Type of data set: physicochemical. The method, then: Activated sludge microcosm experiments were conducted in the dark and aerobic conditions. Three microcosm bioreactors were investigated in duplicate. They were filled with 2 L of fresh activated sludge collected from a local wastewater treatment plant. […] Dark conditions were simulated by covering up the flask with foil. Aerobic conditions were obtained using air from BOC air cylinder and a thorough mixing was maintained using magnetic stirrers. The experiment was 24 hours long. […] Collected samples were subsequently frozen until their analysis to prevent degradation of compounds.
The compounds studied are characterized as having low volatility and therefore volatilization was not considered as a potential removal pathway in studied microcosms. Photodegradation was also not considered (not relevant) under tested activated sludge conditions. Therefore the two important degradation mechanisms to consider were biodegradation and sorption to sludge. […] However, in this study, sorption equilibrium was assumed and therefore sorption could be considered negligible. This is because sorption is assumed to be fast when compared to biological degradation.
Several reports utilized pseudo-first-order kinetics for degradation of micropollutants in activated sludge reactors[48]–[50]. […] Pseudo-first order biodegradation rate k1 [L g^−1h^−1]

Data set [5] deals with Tetrahymena thermophila. The data set is described as follows: microbe, parasite or virus in culture. Type of data set: cell-based. To be noted: for EC50: Tetrahymena thermophila. The method, then:
The tests were performed in accordance with the protocols provided by the manufacturer. […] The tests were carried out in disposable spectrophotometric cells of 1 cm path-length, to enable the measurement of the optical density (OD) at 440 nm. […] This change in OD over the time period is used to quantify the degree of inhibition and subsequent calculation of the EC50. Each concentration was repeated in duplicate.

≈ marks a conversion by molar mass, not a printed value. Like-named read-outs stand apart in the source and are kept apart here.

For the compound NFL glucuronide, the “excreted in the urine as this species” value in data set [1] (in vivo) was 8.2%.
`O=C(O)CNC(=O)c1ccccc1` [hippuric acid]: the “excreted in the urine as this species” value in data set [1] (after FL, ref [3]) is recorded as above 20%.
In the case of `NCC[C@@H](Oc1ccc(C(F)(F)F)cc1)c1ccccc1` [(R)-NFL, (R)-3-phenyl-3-[4-(trifluoromethyl)phenoxy]-1-propanamine], the “Average effect (N immobile, 5 daphnids per replicate)” value came to 0.25 in data set [2] (concentration 0.5); 0.5 in data set [2] (concentration 1.5); 4.25 in data set [2] (concentration 5); 5 in data set [2] (concentration 16); 5 in data set [2] (concentration 50). Also, the EC50 turned out to be 2.9 µg/mL (≈ 9.82 µM) in data set [2] (Daphnia magna, D. magna, this study, read-out: EC50_48h -immobilization); 5.8 µg/mL (≈ 19.6 µM) in data set [5] (T. thermophila, this study, read-out: EC50_24h -growth); 5.84 µg/mL (≈ 19.8 µM) in data set [5] (definitive test, read-out: 24hEC50); 0.418 µg/mL (≈ 1.42 µM) in data set [5] (range test, read-out: 24hEC50). The Concentration is 0.002 ± 0.000 ng/mL in data set [3] (DAR (dark abiotic), day 5); 0.002 ± 0.001 ng/mL in data set [3] (DBR (dark biotic), day 1); 0.002 ± 0.001 ng/mL in data set [3] (DBR (dark biotic), day 3); 0.002 ± 0.001 ng/mL in data set [3] (DBR (dark biotic), day 5); 0.001 ± 0.000 ng/mL in data set [3] (LAR (light abiotic), day 2); 0.004 ± 0.001 ng/mL in data set [3] (LAR (light abiotic), day 3). Besides, the Concentration in data set [3] (LAR (light abiotic), day 4) is 0.003 ± 0.000 ng/mL; in data set [3] (LAR (light abiotic), day 5), 0.002 ± 0.001 ng/mL; in data set [3] (LAR (light abiotic), day 8), 0.001 ± 0.001 ng/mL; in data set [3] (LAR (light abiotic), day 9) it was 0.002 ± 0.001 ng/mL; in data set [3] (LAR (light abiotic), day 10), 0.002 ± 0.000 ng/mL; in data set [3] (LAR (light abiotic), day 11) it was 0.003 ± 0.000 ng/mL. For the same compound, the Concentration in data set [3] (LAR (light abiotic), day 12) is 0.003 ± 0.001 ng/mL; in data set [3] (LAR (light abiotic), day 15), 0.002 ± 0.001 ng/mL; in data set [3] (LAR (light abiotic), day 16), 0.004 ± 0.001 ng/mL; in data set [3] (LBR (light biotic), day 1), 0.001 ± 0.000 ng/mL; in data set [3] (LBR (light biotic), day 2), 0.002 ± 0.000 ng/mL; in data set [3] (LBR (light biotic), day 3), 0.002 ± 0.001 ng/mL. Also, the Concentration was 0.003 ± 0.001 ng/mL in data set [3] (LBR (light biotic), day 5); 0.035 ± 0.009 ng/mL in data set [4] (10 µg L-1 microcosm, time 0); 0.029 ± 0.001 ng/mL in data set [4] (10 µg L-1 microcosm, time 0.5); 0.077 ± 0.004 ng/mL in data set [4] (10 µg L-1 microcosm, time 1); 0.012 ± 0.013 ng/mL in data set [4] (10 µg L-1 microcosm, time 1.5); 0.050 ± 0.011 ng/mL in data set [4] (10 µg L-1 microcosm, time 2). Also, the Concentration in data set [4] (10 µg L-1 microcosm, time 3) is 0.043 ± 0.022 ng/mL; in data set [4] (10 µg L-1 microcosm, time 5), 0.070 ± 0.016 ng/mL; in data set [4] (10 µg L-1 microcosm, time 8), 0.055 ± 0.019 ng/mL; in data set [4] (10 µg L-1 microcosm, time 12), 0.126 ± 0.035 ng/mL; in data set [4] (10 µg L-1 microcosm, time 24), 0.182 ± 0.000 ng/mL; in data set [4] (100 µg L-1 microcosm, time 0) it was 0.109 ± 0.023 ng/mL. Moreover, the Concentration was 0.132 ± 0.015 ng/mL in data set [4] (100 µg L-1 microcosm, time 0.5); 0.128 ± 0.038 ng/mL in data set [4] (100 µg L-1 microcosm, time 1); 0.146 ± 0.039 ng/mL in data set [4] (100 µg L-1 microcosm, time 1.5); 0.428 ± 0.019 ng/mL in data set [4] (100 µg L-1 microcosm, time 2); 0.429 ± 0.164 ng/mL in data set [4] (100 µg L-1 microcosm, time 3); 0.616 ± 0.227 ng/mL in data set [4] (100 µg L-1 microcosm, time 5). Further, the Concentration in data set [4] (100 µg L-1 microcosm, time 8) is 0.710 ± 0.193 ng/mL; in data set [4] (100 µg L-1 microcosm, time 12), 0.859 ± 0.069 ng/mL; in data set [4] (100 µg L-1 microcosm, time 24), 1.302 ± 0.066 ng/mL. The “% I (percentage inhibition)” value in data set [5] (definitive test, conc. 0.220) is on record as -4.385%; in data set [5] (definitive test, conc. 0.661) it was -11.658%; in data set [5] (definitive test, conc. 22.017), 92.941%; in data set [5] (definitive test, conc. 35.941) it was 94.118%; in data set [5] (definitive test, conc. 57.505) it was 94.332%; in data set [5] (definitive test, conc. 118.604) it was 103.743%. Further, the “% I (percentage inhibition)” value in data set [5] (definitive test, conc. 179.703) is reported as 104.492%; in data set [5] (range test, conc. 0.005), 10.591%; in data set [5] (range test, conc. 0.050) it was -7.266%; in data set [5] (range test, conc. 0.500) it was 50.369%; in data set [5] (range test, conc. 5.000), 101.108%; in data set [5] (range test, conc. 50.000), 106.897%.
Take FL glucuronide: the “excreted in the urine as this species” value in data set [1] (in vivo) is listed as 7.4%.

These data come from article PMC5693942 (Scientific Reports, 2017).
